According to article PMC8213057, “Targeting ALK2: An Open Science Approach to Developing Therapeutics for the Treatment of Diffuse Intrinsic Pontine Glioma” (Journal of Medicinal Chemistry, 2020):

Assays:
[1] = biological target: TYK2 (Homo sapiens, UniProt P29597); test: biochemical; settings: read-out: % enzyme activity, 1 μM; Run 1, Run 2
[2] = biological target: T1, HGK/MAP4K4 (Homo sapiens, UniProt O95819); test: 375-member kinase panel; format: biochemical; settings: Run 1, Run 2; for % enzyme activity: 1 μM; for remaining activity at 1 µM: read-out: % enzyme activity, 1 μM
T1 construct: purchased Reaction Biology Corporation
T1 sequence (O95819 whole entry): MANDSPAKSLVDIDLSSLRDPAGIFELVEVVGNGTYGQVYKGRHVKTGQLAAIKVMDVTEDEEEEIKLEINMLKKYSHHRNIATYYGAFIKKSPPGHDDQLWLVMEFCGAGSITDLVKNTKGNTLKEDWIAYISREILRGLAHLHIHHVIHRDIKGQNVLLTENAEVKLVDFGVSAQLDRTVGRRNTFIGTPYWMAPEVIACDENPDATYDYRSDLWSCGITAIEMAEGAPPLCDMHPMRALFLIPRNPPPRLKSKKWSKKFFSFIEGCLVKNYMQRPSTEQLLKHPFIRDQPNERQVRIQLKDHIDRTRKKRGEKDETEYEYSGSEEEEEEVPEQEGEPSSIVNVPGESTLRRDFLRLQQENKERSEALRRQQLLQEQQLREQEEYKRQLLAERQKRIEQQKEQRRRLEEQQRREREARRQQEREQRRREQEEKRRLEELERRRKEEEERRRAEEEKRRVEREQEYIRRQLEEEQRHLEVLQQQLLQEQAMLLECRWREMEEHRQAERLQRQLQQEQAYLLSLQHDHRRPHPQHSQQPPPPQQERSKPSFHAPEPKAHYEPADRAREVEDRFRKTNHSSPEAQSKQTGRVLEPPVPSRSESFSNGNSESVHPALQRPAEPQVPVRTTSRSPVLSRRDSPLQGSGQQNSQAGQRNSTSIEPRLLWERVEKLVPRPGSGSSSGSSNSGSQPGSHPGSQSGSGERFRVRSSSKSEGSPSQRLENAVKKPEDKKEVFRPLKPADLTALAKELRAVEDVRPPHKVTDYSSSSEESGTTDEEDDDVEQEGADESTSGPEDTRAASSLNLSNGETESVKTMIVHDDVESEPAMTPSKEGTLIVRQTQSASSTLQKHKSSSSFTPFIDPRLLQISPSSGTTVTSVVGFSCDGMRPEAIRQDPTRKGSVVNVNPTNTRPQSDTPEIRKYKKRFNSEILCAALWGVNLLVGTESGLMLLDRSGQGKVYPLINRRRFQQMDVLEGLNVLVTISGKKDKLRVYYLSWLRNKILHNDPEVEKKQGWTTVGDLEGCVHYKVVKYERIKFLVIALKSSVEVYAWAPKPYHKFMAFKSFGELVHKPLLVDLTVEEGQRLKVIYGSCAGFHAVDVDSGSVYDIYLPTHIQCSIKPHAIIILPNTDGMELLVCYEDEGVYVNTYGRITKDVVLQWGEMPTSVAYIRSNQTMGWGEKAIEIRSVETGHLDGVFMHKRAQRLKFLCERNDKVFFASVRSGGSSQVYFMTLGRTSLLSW

[3] = biological target: T2, NEK11 (Homo sapiens, UniProt Q8NG66); settings: 1 μM; Run 1, Run 2
T2 sequence (Q8NG66 1-645): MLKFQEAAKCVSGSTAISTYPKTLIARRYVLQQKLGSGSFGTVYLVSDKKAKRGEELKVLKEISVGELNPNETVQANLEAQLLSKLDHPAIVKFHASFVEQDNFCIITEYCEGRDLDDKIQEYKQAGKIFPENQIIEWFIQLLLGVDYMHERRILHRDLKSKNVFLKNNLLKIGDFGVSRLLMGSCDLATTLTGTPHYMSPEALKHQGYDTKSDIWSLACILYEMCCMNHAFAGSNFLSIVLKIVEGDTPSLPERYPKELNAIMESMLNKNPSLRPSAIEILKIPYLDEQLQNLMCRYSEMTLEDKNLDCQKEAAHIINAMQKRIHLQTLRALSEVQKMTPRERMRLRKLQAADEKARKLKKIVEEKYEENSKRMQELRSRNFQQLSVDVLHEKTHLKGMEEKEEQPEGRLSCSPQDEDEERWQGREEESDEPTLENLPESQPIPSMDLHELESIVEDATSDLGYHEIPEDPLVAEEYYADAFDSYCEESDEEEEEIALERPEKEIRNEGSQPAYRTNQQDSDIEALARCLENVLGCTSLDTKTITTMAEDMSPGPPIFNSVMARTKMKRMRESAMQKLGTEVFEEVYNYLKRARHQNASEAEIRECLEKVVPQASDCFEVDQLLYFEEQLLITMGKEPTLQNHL

[4] = biological target: T3, BRSK2 (Homo sapiens, UniProt Q8IWQ3); settings: 1 μM; Run 1, Run 2
T3 sequence (Q8IWQ3 1-736): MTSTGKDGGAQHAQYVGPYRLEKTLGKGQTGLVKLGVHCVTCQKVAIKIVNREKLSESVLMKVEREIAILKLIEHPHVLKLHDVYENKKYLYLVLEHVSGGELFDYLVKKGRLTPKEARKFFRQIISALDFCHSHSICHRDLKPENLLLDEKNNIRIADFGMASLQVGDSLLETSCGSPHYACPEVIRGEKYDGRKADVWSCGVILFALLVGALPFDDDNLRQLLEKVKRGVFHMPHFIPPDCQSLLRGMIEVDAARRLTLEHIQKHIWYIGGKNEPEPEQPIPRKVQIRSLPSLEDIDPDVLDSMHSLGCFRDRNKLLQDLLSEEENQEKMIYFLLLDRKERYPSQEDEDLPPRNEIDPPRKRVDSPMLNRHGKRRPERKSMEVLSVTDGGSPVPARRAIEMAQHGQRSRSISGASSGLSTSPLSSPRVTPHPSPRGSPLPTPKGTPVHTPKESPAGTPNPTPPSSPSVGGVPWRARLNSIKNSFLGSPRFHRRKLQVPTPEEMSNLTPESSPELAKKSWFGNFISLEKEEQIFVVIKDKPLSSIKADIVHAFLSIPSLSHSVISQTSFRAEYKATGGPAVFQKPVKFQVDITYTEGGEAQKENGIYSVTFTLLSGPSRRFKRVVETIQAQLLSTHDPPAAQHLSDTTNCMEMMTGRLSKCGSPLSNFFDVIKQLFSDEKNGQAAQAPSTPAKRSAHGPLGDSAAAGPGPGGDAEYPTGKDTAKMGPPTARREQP

[5] = biological target: T4, ARK5/NUAK1 (Homo sapiens, UniProt O60285); test: biochemical; settings: read-out: % enzyme activity, 1 μM; Run 1, Run 2
T4 sequence (O60285 1-661): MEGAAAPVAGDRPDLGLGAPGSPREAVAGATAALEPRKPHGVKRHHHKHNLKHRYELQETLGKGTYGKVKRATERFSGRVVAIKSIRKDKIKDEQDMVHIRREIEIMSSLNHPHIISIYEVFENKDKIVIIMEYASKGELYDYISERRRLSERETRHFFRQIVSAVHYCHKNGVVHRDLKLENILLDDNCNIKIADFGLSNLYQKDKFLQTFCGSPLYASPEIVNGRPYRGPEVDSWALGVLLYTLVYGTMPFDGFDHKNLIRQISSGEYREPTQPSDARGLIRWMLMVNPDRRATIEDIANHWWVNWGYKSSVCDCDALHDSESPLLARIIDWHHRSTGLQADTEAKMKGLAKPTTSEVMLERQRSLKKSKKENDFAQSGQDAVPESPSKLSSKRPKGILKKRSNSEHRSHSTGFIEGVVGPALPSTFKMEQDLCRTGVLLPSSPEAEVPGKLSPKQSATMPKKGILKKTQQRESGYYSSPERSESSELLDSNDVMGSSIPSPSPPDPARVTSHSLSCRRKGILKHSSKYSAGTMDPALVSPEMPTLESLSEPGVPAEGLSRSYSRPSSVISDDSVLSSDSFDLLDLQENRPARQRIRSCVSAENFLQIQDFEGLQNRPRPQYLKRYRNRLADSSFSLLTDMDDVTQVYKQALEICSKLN

[6] = biological target: T5, TSSK2 (Homo sapiens, UniProt Q96PF2); settings: 1 μM; Run 1, Run 2
T5 sequence (Q96PF2 1-358): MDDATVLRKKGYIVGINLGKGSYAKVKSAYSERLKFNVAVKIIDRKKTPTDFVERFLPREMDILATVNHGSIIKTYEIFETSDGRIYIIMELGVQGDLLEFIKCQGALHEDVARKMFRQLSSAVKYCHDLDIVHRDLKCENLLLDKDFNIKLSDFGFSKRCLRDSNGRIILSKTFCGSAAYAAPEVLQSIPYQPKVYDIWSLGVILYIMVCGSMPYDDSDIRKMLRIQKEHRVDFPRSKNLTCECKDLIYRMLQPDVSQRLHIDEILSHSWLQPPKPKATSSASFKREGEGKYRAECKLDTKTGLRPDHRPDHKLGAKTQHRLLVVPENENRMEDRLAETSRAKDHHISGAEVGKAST

[7] = biological target: c-Src (Homo sapiens, UniProt P12931); test: biochemical; settings: read-out: % enzyme activity, 1 μM; Run 1, Run 2
Chain of c-Src (P12931 whole entry): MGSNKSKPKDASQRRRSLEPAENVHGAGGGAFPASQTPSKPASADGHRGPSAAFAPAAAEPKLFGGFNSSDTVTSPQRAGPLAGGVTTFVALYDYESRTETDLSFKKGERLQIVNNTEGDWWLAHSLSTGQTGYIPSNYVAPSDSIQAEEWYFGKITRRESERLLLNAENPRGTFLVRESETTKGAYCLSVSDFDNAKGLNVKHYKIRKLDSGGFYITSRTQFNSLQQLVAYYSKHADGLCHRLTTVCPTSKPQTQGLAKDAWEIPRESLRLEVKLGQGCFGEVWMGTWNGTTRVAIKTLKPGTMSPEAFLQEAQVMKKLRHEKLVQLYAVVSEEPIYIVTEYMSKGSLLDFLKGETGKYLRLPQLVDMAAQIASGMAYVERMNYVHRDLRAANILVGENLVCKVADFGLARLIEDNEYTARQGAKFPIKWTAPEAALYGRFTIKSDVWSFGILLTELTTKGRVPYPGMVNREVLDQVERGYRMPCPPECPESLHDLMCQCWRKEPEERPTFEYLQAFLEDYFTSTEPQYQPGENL

Chain of TYK2 (P29597 whole entry, species assumed): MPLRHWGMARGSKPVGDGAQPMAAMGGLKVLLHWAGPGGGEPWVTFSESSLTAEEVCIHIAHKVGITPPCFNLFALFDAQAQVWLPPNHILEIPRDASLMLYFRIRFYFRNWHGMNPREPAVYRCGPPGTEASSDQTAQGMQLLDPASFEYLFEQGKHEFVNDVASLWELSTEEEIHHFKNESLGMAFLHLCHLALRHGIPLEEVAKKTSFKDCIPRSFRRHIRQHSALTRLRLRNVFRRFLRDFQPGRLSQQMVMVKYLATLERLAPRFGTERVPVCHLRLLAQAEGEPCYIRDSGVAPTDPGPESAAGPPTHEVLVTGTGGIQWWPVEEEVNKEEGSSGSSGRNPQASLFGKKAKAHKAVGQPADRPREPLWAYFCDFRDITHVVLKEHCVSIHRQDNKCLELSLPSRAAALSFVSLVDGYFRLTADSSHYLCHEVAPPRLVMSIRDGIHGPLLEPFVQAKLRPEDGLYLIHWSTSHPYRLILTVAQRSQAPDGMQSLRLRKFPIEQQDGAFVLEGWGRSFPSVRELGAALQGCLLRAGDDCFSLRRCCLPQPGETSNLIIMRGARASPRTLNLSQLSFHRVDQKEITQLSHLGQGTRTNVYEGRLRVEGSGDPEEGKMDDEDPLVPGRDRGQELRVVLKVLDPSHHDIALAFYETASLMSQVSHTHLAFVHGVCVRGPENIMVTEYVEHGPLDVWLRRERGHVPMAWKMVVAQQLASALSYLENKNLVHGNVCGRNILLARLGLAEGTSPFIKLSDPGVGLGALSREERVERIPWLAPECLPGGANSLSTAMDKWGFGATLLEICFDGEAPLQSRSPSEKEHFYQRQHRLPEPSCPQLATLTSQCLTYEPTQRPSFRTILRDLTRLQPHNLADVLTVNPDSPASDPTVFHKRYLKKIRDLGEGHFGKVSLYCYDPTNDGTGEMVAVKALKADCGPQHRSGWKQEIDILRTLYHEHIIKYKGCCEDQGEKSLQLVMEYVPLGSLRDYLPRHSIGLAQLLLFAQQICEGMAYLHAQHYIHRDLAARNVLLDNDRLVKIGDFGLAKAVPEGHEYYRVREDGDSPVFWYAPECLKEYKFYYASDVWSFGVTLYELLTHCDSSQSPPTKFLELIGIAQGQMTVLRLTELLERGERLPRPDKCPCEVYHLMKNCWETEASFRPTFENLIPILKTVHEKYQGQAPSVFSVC

Row | Compound | remaining activity at 1 µM [1] [%] | % enzyme activity [2] [%] | remaining activity at 1 µM [2] [%] | % enzyme activity [3] [%] | % enzyme activity [4] [%] | remaining activity at 1 µM [5] [%] | % enzyme activity [6] [%] | remaining activity at 1 µM [7] [%]
1 | COc1cc(-c2cncc(-c3ccc(N4CCN(C)CC4)cc3)c2C)cc(F)c1C(N)=O [Compound 26a, 2-Fluoro-6-methoxy-4-(4-methyl-5-(4-(4-methylpiperazin-1-yl)phenyl)pyridin-3-yl)benzamide] | 92.6 | 20.97 | 22 | 85.69 | 60.95 | 97.6 | 98.77 | 96.6
2 | COc1cc(-c2cncc(-c3ccc(N4C[C@@H](C)N(C)[C@@H](C)C4)cc3)c2C)cc(F)c1C(N)=O [Compound 26c, 2-Fluoro-6-methoxy-4-(4-methyl-5-(4-((3R,5S)-3,4,5-trimethylpiperazin-1-yl)phenyl)pyridin-3-yl)benzamide] | 103 | 28.35 | 30.6 | 87.79 | 76.84 | 96 | 99.71 | 100
